Literature values in patent US20210137911A1, “NOVEL CHRONOTHERAPY BASED ON CIRCADIAN RHYTHMS” (THE TRUSTEES OF THE UNIVERSITY OF PENNSYLVANIA, priority 2014, published 2021).
Where two headings read alike, the source gives them in different places.

Conditions: cited from earlier work
[1] = half-life of top selling therapeutic compounds (Table 1)
[2] = half-life of therapeutic compound as listed in Table 1

Compound	½ Life (in vivo)	½ Life [1]	other results
CCC(C)(C)C(=O)O[C@H]1C[C@@H](C)C=C2C=C[C@H](C)[C@H](CC[C@@H]3C[C@@H](O)CC(=O)O3)[C@H]21 [Simvastatin, reference compound]	–	–	half-life (see Table 1): less than three
CN(C)CCc1c[nH]c2ccc(Cn3cncn3)cc12 [Rizatriptan]	2 h	–	–
CC(=O)Nc1nnc(S(N)(=O)=O)s1 [Acetazolamide]	–	3 h	–
CNC(=O)c1ccccc1Sc1ccc2c(/C=C/c3ccccn3)n[nH]c2c1 [Axitinib]	–	2.5 h	–
Cc1ccc(-c2nc3ccc(C)cn3c2CC(=O)N(C)C)cc1 [Zolpidem]	2.6 h	–	–
C[C@H]1C[C@@H]2[C@H]([C@@H](O)C[C@@]3(C)[C@H]2CC[C@]3(O)C(=O)CO)[C@@]2(C)C=CC(=O)C=C12 [Methylprednisolone]	–	–	½ Life [2]: 1 h
OC(CCN1CCCCC1)(c1ccccc1)C1CCCCC1 (stereo not shown) [Trihexyphenidyl]	3.3 h	–	–
CC(C)(C)NCC(O)c1cc(O)cc(O)c1 (stereo not shown) [Terbutaline]	5.5 h	–	–
CC(C)OC(=O)CCC/C=C\C[C@@H]1[C@@H](CC[C@@H](O)CCc2ccccc2)[C@H](O)C[C@@H]1O [Latanoprost]	–	–	½ Life [2]: 0.283 h
Anakinra	4 h	–	–
COC(=O)CCc1ccc(OCC(O)CNC(C)C)cc1 (stereo not shown) [Esmolol]	–	2 h	–
CCCN(CCc1cccs1)[C@H]1CCc2c(O)cccc2C1 [Rotigotine]	5 h	–	–
CC(NCCc1ccc(O)cc1)C(O)c1ccc(O)cc1 (stereo not shown) [Ritodrine]	1.7 h	–	–
CCOC(=O)c1ncn2c1CN(C)C(=O)c1cc(F)ccc1-2 [Flumazenil]	–	4 h	–
Bleomycin	–	1.916 h	–
CC(N)C(O)c1ccccc1 (stereo not shown) [Phenylpropanolamine]	2.1 h	–	–
Interferon Alfa-2a, Recombinant	2 h	–	–
CN(C)Cc1nnc2n1-c1ccc(Cl)cc1C(c1ccccc1)=NC2 [Adinazolam]	3 h	–	–
C[C@H]1C[C@H]2[C@@H]3CCC4=CC(=O)C=C[C@]4(C)[C@@]3(F)[C@@H](O)C[C@]2(C)[C@@]1(O)C(=O)CO [Betamethasone]	–	5.6 h	–
CCOC(=O)C1(c2ccccc2)CCN(C)CC1 [Pethidine]	1 h	–	–
CCCCc1ncc(/C=C(\Cc2cccs2)C(=O)O)n1Cc1ccc(C(=O)O)cc1 [Eprosartan]	–	5 h	–
COc1cc2c(c(OC)c1OC)-c1ccc(OC)c(=O)cc1[C@@H](NC(C)=O)CC2 [Colchicine]	–	1 h	–
CCc1ccc(CCOc2ccc(CC3SC(=O)NC3=O)cc2)nc1 (stereo not shown) [Pioglitazone]	–	–	½ Life [2]: 3 h
CCCc1cc(=O)[nH]c(=S)[nH]1 [Propylthiouracil]	2 h	–	–
CC(=O)Nc1ccc(O)cc1 [Acetaminophen]	–	1 h	–
COCCCOc1ccnc(C[S+]([O-])c2nc3ccccc3[nH]2)c1C (stereo not shown) [Rabeprazole]	1 h	–	–

Compound	½ Life (in vivo)	½ Life [1]	other results
CC(=O)c1ccc2c(c1)N(CCCN(C)C)c1ccccc1S2 [Acepromazine]	–	3 h	–
CCCCS(=O)(=O)N[C@@H](Cc1ccc(OCCCCC2CCNCC2)cc1)C(=O)O [Tirofiban]	2 h	–	–
Nc1ncn([C@H]2C[C@H](O)[C@@H](CO)O2)c(=O)n1 [Decitabine]	–	0.51 h	–
CC(C)(Oc1ccc(CCNC(=O)c2ccc(Cl)cc2)cc1)C(=O)O [Bezafibrate, reference compound]	–	1 h	–
Cc1ccc(C(=O)c2ccc(CC(=O)O)n2C)cc1 [Tolmetin]	2 h	–	–
CC(=O)O[C@H]1C[C@@H]2CC[C@@H]3[C@H](CC[C@@]4(C)[C@H]3C[C@H]([N+]3(C)CCCCC3)[C@@H]4OC(C)=O)[C@@]2(C)C[C@@H]1[N+]1(C)CCCCC1 [Pancuronium]	1.5 h	–	–
CCCCCc1cc(O)c2c(c1)OC(C)(C)[C@@H]1CCC(C)=C[C@@H]21 [Dronabinol]	4 h	–	–
O=[N+]([O-])O[C@H]1CO[C@H]2[C@@H]1OC[C@H]2O[N+](=O)[O-] [Isosorbide Dinitrate]	–	–	½ Life [2]: 1 h
CCCC(C)C1(CC)C(=O)NC(=S)NC1=O (stereo not shown) [Thiopental]	3 h	–	–
N[C@@H]1C[C@H]1c1ccccc1 (racemic) [Tranylcypromine]	1.5 h	–	–
CN(C)CCc1c[nH]c2ccc(CS(=O)(=O)N3CCCC3)cc12 [Almotriptan]	–	3 h	–
C[N+]1(C)CCC(OC(=O)C(O)(c2ccccc2)C2CCCC2)C1 (stereo not shown) [Glycopyrrolate]	–	–	½ Life [2]: 0.6 h
CC(C)OC(=O)CCC/C=C\C[C@@H]1[C@@H](/C=C/[C@@H](O)COc2cccc(C(F)(F)F)c2)[C@H](O)C[C@@H]1O [Travoprost]	0.75 h	–	–
NC(=O)CC[C@@H]1NC(=O)[C@H](Cc2ccccc2)NC(=O)[C@H](Cc2ccc(O)cc2)NC(=O)[C@@H](N)CSSC[C@@H](C(=O)N2CCC[C@H]2C(=O)N[C@@H](CCCN=C(N)N)C(=O)NCC(N)=O)NC(=O)[C@H](CC(N)=O)NC1=O [Vasopressin]	0.166 h	–	–
C[C@]12C=CC(=O)C=C1CC[C@@H]1[C@@H]2[C@@H](O)C[C@@]2(C)[C@H]1CC[C@]2(O)C(=O)CO [Prednisolone]	2 h	–	–
CC(C)(O)c1ccccc1CC[C@@H](SCC1(CC(=O)O)CC1)c1cccc(/C=C/c2ccc3ccc(Cl)cc3n2)c1 [Montelukast]	2.7 h	–	–
O=c1[nH]cc(F)c(=O)[nH]1 [Fluorouracil]	–	0.166 h	–
COc1ccc(C(=O)Nc2ccccc2CCC2CCCCN2C)cc1 (stereo not shown) [Encainide]	–	1 h	–
CNC[C@H](O)c1ccc(O)c(O)c1 [Epinephrine]	–	0.033 h	–
Cn1cc[nH]c1=S [Methimazole]	–	–	½ Life [2]: 5 h
CC(C)C[C@H](NC(=O)[C@@H](COC(C)(C)C)NC(=O)[C@H](Cc1ccc(O)cc1)NC(=O)[C@H](CO)NC(=O)[C@H](Cc1c[nH]c2ccccc12)NC(=O)[C@H](Cc1cnc[nH]1)NC(=O)[C@@H]1CCC(=O)N1)C(=O)N[C@@H](CCCNC(=N)N)C(=O)N1CCC[C@H]1C(=O)NNC(N)=O [Goserelin]	–	–	½ Life [2]: 4 h
NCCc1ccc(O)c(O)c1 [Dopamine]	–	0.033 h	–
CNS(=O)(=O)CCc1ccc2[nH]cc(C3CCN(C)CC3)c2c1 [Naratriptan]	–	–	½ Life [2]: 5 h
Oc1ncnc2[nH]ncc12 [Allopurinol]	–	1 h	–
CC[C@H](C)[C@H](NC(=O)[C@@H]1CCCN1C(=O)CNC(=O)[C@H](Cc1ccccc1)NC(=O)[C@H](CC(N)=O)NC(=O)[C@H](CC(N)=O)NC(=O)[C@H](CO)NC(=O)[C@H](CO)NC(=O)[C@H](Cc1c[nH]cn1)NC(=O)[C@@H](NC(=O)[C@H](CC(C)C)NC(=O)[C@H](Cc1ccccc1)NC(=O)[C@H](CC(N)=O)NC(=O)[C@H](C)NC(=O)[C@H](CC(C)C)NC(=O)[C@H](CCCNC(=N)N)NC(=O)[C@H](CCC(N)=O)NC(=O)[C@@H](NC(=O)[C@H](C)NC(=O)[C@@H]1CSSC[C@H](NC(=O)[C@@H](N)CCCCN)C(=O)N[C@@H](CC(N)=O)C(=O)N[C@@H]([C@@H](C)O)C(=O)N[C@@H](C)C(=O)N[C@@H]([C@@H](C)O)C(=O)N1)[C@@H](C)O)C(C)C)C(=O)N[C@@H](CC(C)C)C(=O)N1CCC[C@H]1C(=O)N1CCC[C@H]1C(=O)N[C@H](C(=O)N[C@@H](CC(N)=O)C(=O)N[C@H](C(=O)NCC(=O)N[C@@H](CO)C(=O)N[C@@H](CC(N)=O)C(=O)N[C@H](C(=O)N[C@@H](Cc1ccc(O)cc1)C(N)=O)[C@@H](C)O)C(C)C)[C@@H](C)O [Pramlintide]	0.8 h	–	–
CCCCCCC(C)(C)c1cc(O)c2c(c1)OC(C)(C)C1CCC(=O)CC21 (stereo not shown) [Nabilone]	–	–	½ Life [2]: 2 h

Compound	½ Life (in vivo)	½ Life [1]	other results
CN1CCN(C2=Nc3ccccc3Oc3ccc(Cl)cc32)CC1 [Loxapine]	–	–	½ Life [2]: 4 h
COc1cc([C@@H]2c3cc4c(cc3[C@@H](O[C@@H]3O[C@@H]5CO[C@@H](C)O[C@H]5[C@H](O)[C@H]3O)[C@H]3COC(=O)[C@H]23)OCO4)cc(OC)c1O [Etoposide]	–	4 h	–
NNC(=O)c1ccncc1 [Isoniazid]	–	–	½ Life [2]: 0.5 h
NNc1nncc2ccccc12 [Hydralazine]	–	–	½ Life [2]: 3 h
O=C(O)C1N=C(c2ccccc2)c2cc(Cl)ccc2NC1=O (stereo not shown) [Clorazepate]	–	2 h	–
C=CCN1CC[C@]23c4c5ccc(O)c4O[C@H]2C(=O)CC[C@@]3(O)[C@H]1C5 [Naloxone]	–	–	½ Life [2]: 0.5 h
CC1OC2(CS1)CN1CCC2CC1 (stereo not shown) [Cevimeline]	–	5 h	–
Cn1c(=O)c2c(ncn2CC(O)CO)n(C)c1=O (stereo not shown) [Dyphylline]	–	2 h	–
CCOc1ccc2nc(S(N)(=O)=O)sc2c1 [Ethoxzolamide]	–	2.5 h	–
CCn1cc(C(=O)O)c(=O)c2cc(F)c(N3CCNCC3)nc21 [Enoxacin]	–	3 h	–
Heparin	1.5 h	–	–
COc1ccc(CN=c2[nH]c(N3CCC[C@H]3CO)ncc2C(=O)NCc2ncccn2)cc1Cl [Avanafil]	–	5.36 h	–
CN(CCOc1ccc(CC2SC(=O)NC2=O)cc1)c1ccccn1 (stereo not shown) [Rosiglitazone]	3 h	–	–
O=C(O)c1cccnc1Nc1cccc(C(F)(F)F)c1 [Niflumic Acid]	–	–	½ Life [2]: 2.5 h
Pegaptanib	3 h	–	–
CN1C[C@H](C(=O)N[C@]2(C)O[C@@]3(O)[C@@H]4CCCN4C(=O)[C@H](Cc4ccccc4)N3C2=O)C=C2c3cccc4[nH]cc(c34)C[C@H]21 [Ergotamine]	2 h	–	–
Nc1nc(N/N=C/C2CCCCC2)nc2c1ncn2[C@@H]1O[C@H](CO)[C@@H](O)[C@H]1O [Binodenoson]	–	0.166 h	–
O=C1CN2Cc3c(ccc(Cl)c3Cl)N=C2N1 [Anagrelide]	–	0.5 h	–
CC(C)[C@H]1CC[C@H](C(=O)N[C@H](Cc2ccccc2)C(=O)O)CC1 [Nateglinide]	–	–	½ Life [2]: 1.5 h
CC(C(=O)O)c1ccc(C(=O)c2ccccc2)s1 (stereo not shown) [Tiaprofenic acid]	1.5 h	–	–
CS(=O)(=O)Nc1ccc([N+](=O)[O-])cc1Oc1ccccc1 [Nimesulide]	1.8 h	–	–
O=C1c2ccccc2C(=O)C1c1ccccc1 [Phenindione]	–	–	½ Life [2]: 5 h
Cc1ccc(Cl)c(OCC(O)CNC(C)(C)C)c1 (stereo not shown) [Bupranolol]	–	2 h	–
CNCC[C@@H](Oc1ccccc1C)c1ccccc1 [Atomoxetine]	–	5 h	–
